The source of these data is US20250129078A1, “ERBB2 INHIBITORS” (Cogent Biosciences, Inc., priority 2023, published 2025).

In general, pIC50 refers to −log10 of the IC50, conventionally taken in molar units. The low end stands for a large IC50, the high end for a small IC50.

Series [1] can be described thus: Blood brain barrier penetration assay in CD-1 mice (short oral absorption model, Kpuu brain). It counts as in vivo. The following applies: mouse, brain and plasma, male CD-1 mice, 1 h post-dose, Kpuu brain = conc (brain)/conc (plasma) x (fu brain/fu plasma). Here is the method: In vitro plasma and brain binding assays were carried out using the equilibrium dialysis method. EDTA-anticoagulated plasma and diluted brain homogenate (1:3 with DPBS pH 7.4) were spiked with 2 μM test compound and dialyzed against an equal volume of 100 μL 100 mM sodium phosphate buffer (pH 7.4) at 37° C. for 4 h in a slowly rotated plate. At the end of the dialysis 50 μL aliquots from the buffer side and matrix side of the dialysis device were taken into new 96-well plates. An equal volume of opposite blank matrix (buffer or matrix) in each sample was added to reach a final volume of 100 μL. All samples were processed by protein precipitation for LC/MS/MS analysis. Unbound fraction (fu) of test compound was calculated by the ratio of buffer side response to the brain homogenate/plasma side response, and unbound fraction (fu,pl and fu,br) of test compound in non-diluted plasma and brain tissue were calculated from measured fu in homogenate and plasma with the following equation: fu,pl or fu,br=1/D/((1/(F/T)-1)+1/D). F is the free compound concentration as determined by the calculated concentration on the buffer side of the membrane and T is the total compound concentration as determined by the calculated concentration on the matrix side of the membrane. D is the dilution factor (D equals 1 for plasma, and 4 for brain).
A short oral absorption model is an in-vivo screening model to identify brain penetration of a compound. Three male CD-1 mice were orally dosed with an appropriate vehicle. At the 1 h timepoint post-dose, blood samples were collected via cardiac puncture, placed into EDTA anti-coagulated tubes, and spiked with 1% 1 mM quinidine (aq). The samples were placed on wet ice until centrifugation at 4000×g for 10 min. Brain tissue was rinsed with saline and the liquid was drained. The brains were weighed and transferred to tubes for homogenization. Each tube contained 1 g tissue, 9 mL buffer (1:2 v/v MeOH:15 mM PBS), and a spike of 1% 1 mM quinidine (aq). All samples were stored at −80° C. prior to LC/MS/MS analysis. Standards were prepared by spiking blank plasma and brain homogenate. Aliquots (10 μL) of sample, calibration standard, quality control, dilution quality control, single blank, and double blank were added to the 96-well plate respectively. Homogenized brain tissue along with plasma samples were precipitated by adding 190 μL cold MeCN containing internal standard (the double blank sample was quenched with 190 L MeCN). The mixture was vortex-mixed for 5 min at 1000 rpm and centrifuged for 10 min at 3220×g, 4° C. […] The free fraction of test compound in biological matrix was determined by using in vitro plasma and brain tissue free fraction. Kpuu brain was calculated by the equation: Kpuu brain=cone (brain)/conc (plasma)×(fu brain/fu plasma).

The next series has as its target EGFR WT (Homo sapiens (Human), UniProt P00533). Nature of the series: ErbB enzyme assay (CisBio HTRF-KinEASE-TK), EGFR WT. The format is biochemical. The note with it: ATP at Km (25 μM), 1 h incubation. The method in brief:
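Compounds, serially diluted three-fold, were incubated with enzyme for 1 h at ambient temperature. Detection reagents were then added for a further hour, and the 655/620 nm HTRF ratio was normalised to uninhibited and pre-quenched controls. IC50 was fitted with a four-parameter logistic model.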

For another series, the target named is ErbB2 V777L (Homo sapiens (Human), UniProt P04626, V777L). Nature of the series: ErbB enzyme assay (CisBio HTRF-KinEASE-TK), ErbB2 V777L. It counts as biochemical. In outline: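 HTRF KinEASE-TK tyrosine-kinase read-out of substrate phosphorylation after a final 1 h at ambient temperature, from the 655/620 nm emission ratio.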
In general terms: In TR-FRET formats the signal depends on donor and acceptor labels being close together.

The target of the next series is ErbB2 mutant L755S (Homo sapiens (Human), UniProt P04626, L755S). Nature of the series: ErbB cellular phosphorylation assay (phospho-ErbB2 ELISA), HEK-293 cells expressing ErbB2 L755S. It counts as cell-based. The following applies: 1 h treatment. On the procedure:
Cells were seeded in poly-D-lysine coated, 96-well plates at a density of 50,000 cells/well in complete medium (DMEM supplemented with 10% fetal bovine serum and G418) and incubated for 24 h at 37° C., 5% CO2 prior to treatment. Cells were treated with compound using three-fold dilutions at final concentrations ranging from […] for 1 h at 37° C., 5% CO2. EGFR-WT cells were stimulated with 500 ng/mL recombinant human EGF (R&D Systems, 236-EG) for an additional 5 min. After compound incubation, medium was removed from the plate, and cells were lysed in buffer containing protease and phosphatase inhibitors ([…]). Cell lysates were analyzed by enzyme-linked immunosorbent assay (ELISA). The ELISAs were performed to measure phosphorylated ErbB2 or phosphorylated EGFR levels, respectively (R&D Systems, DYC-1768, Human Phospho-ErbB2 DuoSet ELISA; DYC1095, Human Phospho-EGFR DuoSet IC ELISA) according to the manufacturer's instructions. Absorbance was measured at 450 nm using a BioTek Cytation 5 plate reader (Agilent, Santa Clara, CA) and IC50 values were calculated using a 4-parameter fit.

The next series addresses EGFR wild type (Homo sapiens (Human), UniProt P00533). The series is described as follows: ErbB cellular phosphorylation assay (phospho-EGFR ELISA), HEK-293 cells expressing EGFR wild type, EGF stimulated. It counts as cell-based. The note with it: 1 h treatment. Here is the method: HEK-293 cells were engineered to constitutively express ErbB2 mutant L755S or EGFR wild type (constructs obtained from GenScript, Piscataway, NJ). Cells were seeded in poly-D-lysine coated, 96-well plates at a density of 50,000 cells/well in complete medium (DMEM supplemented with 10% fetal bovine serum and G418) and incubated for 24 h at 37° C., 5% CO2 prior to treatment. Cells were treated with compound using three-fold dilutions at final concentrations ranging from […] for 1 h at 37° C., 5% CO2. EGFR-WT cells were stimulated with 500 ng/mL recombinant human EGF (R&D Systems, 236-EG) for an additional 5 min. After compound incubation, medium was removed from the plate, and cells were lysed in buffer containing protease and phosphatase inhibitors ([…]). Cell lysates were analyzed by enzyme-linked immunosorbent assay (ELISA). The ELISAs were performed to measure phosphorylated ErbB2 or phosphorylated EGFR levels, respectively (R&D Systems, DYC-1768, Human Phospho-ErbB2 DuoSet ELISA; DYC1095, Human Phospho-EGFR DuoSet IC ELISA) according to the manufacturer's instructions. Absorbance was measured at 450 nm using a BioTek Cytation 5 plate reader (Agilent, Santa Clara, CA) and IC50 values were calculated using a 4-parameter fit.
Background: In an ELISA, binding on a coated surface is turned into a signal by an enzyme label.

pIC50: −log10 of the molar value.

Sequence of ErbB2 V777L (P04626 23-1255 V777L): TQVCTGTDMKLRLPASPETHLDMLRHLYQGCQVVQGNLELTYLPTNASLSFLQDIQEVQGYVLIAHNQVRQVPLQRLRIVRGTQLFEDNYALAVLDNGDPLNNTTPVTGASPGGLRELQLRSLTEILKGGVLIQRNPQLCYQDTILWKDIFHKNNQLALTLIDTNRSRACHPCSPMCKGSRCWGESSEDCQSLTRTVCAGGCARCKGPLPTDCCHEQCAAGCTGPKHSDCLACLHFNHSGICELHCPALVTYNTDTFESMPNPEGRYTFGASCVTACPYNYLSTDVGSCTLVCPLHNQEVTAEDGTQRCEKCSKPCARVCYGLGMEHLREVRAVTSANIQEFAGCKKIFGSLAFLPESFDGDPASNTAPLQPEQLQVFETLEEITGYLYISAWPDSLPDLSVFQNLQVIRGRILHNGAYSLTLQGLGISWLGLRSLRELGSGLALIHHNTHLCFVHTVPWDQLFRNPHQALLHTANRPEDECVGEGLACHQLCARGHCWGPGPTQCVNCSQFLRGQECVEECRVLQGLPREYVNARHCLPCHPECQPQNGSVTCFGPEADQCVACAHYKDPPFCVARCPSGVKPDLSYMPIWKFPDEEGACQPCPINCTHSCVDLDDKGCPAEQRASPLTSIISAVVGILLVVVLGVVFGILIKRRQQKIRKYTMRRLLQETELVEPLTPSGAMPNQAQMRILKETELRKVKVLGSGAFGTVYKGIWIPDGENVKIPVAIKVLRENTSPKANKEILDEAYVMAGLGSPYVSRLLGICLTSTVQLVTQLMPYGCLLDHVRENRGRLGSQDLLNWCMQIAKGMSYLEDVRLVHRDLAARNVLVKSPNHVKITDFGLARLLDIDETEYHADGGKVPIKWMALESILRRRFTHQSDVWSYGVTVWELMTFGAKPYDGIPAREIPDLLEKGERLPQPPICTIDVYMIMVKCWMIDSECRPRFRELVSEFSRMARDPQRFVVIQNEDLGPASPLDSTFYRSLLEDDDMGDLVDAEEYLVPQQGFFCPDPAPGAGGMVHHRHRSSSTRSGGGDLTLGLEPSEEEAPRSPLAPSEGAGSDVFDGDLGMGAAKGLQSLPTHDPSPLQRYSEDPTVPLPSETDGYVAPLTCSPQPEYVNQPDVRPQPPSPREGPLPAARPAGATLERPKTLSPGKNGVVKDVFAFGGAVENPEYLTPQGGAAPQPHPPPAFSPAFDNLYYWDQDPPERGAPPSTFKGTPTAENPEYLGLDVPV
Sequence of EGFR wild type (P00533 25-1210): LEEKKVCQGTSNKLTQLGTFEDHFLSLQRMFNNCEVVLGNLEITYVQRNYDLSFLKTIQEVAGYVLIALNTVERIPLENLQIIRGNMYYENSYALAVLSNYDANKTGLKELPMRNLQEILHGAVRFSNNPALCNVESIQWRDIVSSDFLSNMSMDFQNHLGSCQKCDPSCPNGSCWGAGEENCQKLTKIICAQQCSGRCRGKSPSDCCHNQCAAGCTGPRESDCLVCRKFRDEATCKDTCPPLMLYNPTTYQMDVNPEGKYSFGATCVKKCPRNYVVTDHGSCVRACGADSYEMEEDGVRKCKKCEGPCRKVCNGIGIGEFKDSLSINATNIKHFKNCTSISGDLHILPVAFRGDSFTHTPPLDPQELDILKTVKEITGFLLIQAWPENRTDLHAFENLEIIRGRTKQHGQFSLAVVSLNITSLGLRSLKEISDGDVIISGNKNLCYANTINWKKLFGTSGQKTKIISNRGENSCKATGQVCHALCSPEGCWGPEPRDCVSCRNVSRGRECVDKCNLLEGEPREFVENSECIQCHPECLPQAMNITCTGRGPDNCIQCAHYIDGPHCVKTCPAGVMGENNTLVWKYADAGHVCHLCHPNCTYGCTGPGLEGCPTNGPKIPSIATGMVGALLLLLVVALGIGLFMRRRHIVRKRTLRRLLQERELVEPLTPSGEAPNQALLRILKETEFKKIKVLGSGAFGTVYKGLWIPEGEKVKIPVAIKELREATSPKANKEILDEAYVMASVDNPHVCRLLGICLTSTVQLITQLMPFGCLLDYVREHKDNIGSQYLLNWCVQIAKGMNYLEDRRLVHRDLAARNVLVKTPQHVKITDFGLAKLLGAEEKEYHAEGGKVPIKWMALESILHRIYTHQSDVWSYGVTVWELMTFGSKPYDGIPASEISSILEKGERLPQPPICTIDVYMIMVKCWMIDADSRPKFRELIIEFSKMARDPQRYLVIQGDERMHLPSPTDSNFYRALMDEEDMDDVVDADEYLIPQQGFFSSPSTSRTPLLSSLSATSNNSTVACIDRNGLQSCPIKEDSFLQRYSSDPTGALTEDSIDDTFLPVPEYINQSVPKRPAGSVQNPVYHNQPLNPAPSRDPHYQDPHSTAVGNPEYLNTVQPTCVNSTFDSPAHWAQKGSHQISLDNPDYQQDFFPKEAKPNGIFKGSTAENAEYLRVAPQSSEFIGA
Sequence of EGFR WT (P00533 25-1210): as above
Sequence of ErbB2 mutant L755S (P04626 23-1255 L755S): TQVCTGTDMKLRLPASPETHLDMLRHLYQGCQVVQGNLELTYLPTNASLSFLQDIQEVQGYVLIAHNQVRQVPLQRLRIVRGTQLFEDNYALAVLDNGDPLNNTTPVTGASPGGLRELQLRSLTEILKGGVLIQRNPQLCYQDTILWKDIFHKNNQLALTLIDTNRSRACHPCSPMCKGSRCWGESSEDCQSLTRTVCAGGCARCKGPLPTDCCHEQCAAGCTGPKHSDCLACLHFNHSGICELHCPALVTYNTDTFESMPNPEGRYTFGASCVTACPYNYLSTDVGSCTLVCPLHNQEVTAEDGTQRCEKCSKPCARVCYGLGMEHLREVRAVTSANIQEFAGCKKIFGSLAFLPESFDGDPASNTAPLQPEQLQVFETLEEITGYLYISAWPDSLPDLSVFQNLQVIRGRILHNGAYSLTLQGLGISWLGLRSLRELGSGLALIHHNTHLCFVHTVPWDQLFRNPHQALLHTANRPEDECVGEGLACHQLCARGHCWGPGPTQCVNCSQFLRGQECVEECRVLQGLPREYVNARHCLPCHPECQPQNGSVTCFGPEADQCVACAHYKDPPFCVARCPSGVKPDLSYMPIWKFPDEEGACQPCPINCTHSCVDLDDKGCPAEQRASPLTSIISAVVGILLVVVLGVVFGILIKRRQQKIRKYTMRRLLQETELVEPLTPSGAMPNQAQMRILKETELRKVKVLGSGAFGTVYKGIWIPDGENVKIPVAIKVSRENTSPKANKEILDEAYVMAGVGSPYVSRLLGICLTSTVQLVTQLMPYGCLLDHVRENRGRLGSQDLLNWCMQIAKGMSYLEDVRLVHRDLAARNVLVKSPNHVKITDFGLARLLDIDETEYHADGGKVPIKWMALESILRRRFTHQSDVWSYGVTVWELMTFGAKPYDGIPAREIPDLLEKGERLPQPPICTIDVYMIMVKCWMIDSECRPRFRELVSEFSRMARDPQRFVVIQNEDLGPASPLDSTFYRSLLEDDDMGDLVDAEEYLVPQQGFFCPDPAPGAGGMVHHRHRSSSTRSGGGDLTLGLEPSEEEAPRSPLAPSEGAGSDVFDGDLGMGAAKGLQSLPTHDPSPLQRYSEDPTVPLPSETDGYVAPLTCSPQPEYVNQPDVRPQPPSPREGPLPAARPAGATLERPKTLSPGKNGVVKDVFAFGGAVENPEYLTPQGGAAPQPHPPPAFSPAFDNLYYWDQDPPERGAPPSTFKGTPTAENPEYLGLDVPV

`C=CC(=O)N1CCN(c2ncc3ncnc(Nc4ccc(Oc5ccc6c(c5)ncn6C)c(C)c4)c3n2)CC1` [Analog of compound 5, reference compound] yielded a Kp uu at 1 h in series [1] of 0.04.
As to `C=CC(=O)N1CCN(c2ncc3ncnc(Nc4ccc(Oc5ccc6c(c5)nnn6C)c(C)c4)c3n2)CC1` [Compound 5, 1-(4-(8-((3-methyl-4-((1-methyl-1H-benzo[d][1,2,3]triazol-5-yl)oxy)phenyl)amino)pyrimido[5,4-d]pyrimidin-2-yl)piperazin-1-yl)prop-2-en-1-one], the pIC50 on EGFR WT is 6.30 to 7.00. In series [1], this compound had a Kp uu at 1 h of 0.22.
In the same order, the values of `C=CC(=O)N1CCN(c2ncc3ncnc(Nc4ccc(Oc5cnc6c(c5)ncn6C)c(C)c4)c3n2)CC1` [Compound 235, 1-(4-(8-((3-methyl-4-((3-methyl-3H-imidazo[4,5-b]pyridin-6-yl)oxy)phenyl)amino)pyrimido[5,4-d]pyrimidin-2-yl)piperazin-1-yl)prop-2-en-1-one] are 6.30 to 7.00 and 0.04.
In the case of `C=CC(=O)N1CCN(c2ncc3ncnc(Nc4cc(C)c(Oc5ccc6c(c5)ncn6C(F)F)cc4OC)c3n2)C[C@H]1C` [Compound 39, (R)-1-(4-(8-((4-((1-(difluoromethyl)-1H-benzo[d]imidazol-5-yl)oxy)-2-methoxy-5-methylphenyl)amino)pyrimido[5,4-d]pyrimidin-2-y1)-2-methylpiperazin-1-yl)prop-2-en-1-one], the negative logarithm of the IC50 (pIC50) on ErbB2 V777L is 6.30 to 7.00; at EGFR WT, 6.00 to 6.30; against ErbB2 mutant L755S, 6.30 to 7.00; against EGFR wild type, at most 5.30.
With `C=CC(=O)N1C2CC1CN(c1ccc3ncnc(Nc4ccc(Oc5ccc6c(c5)nnn6C)c(C)c4)c3n1)C2` [Compound 93, 1-(3-(4-((3-methyl-4-((1-methyl-1H-benzo[d][1,2,3]triazol-5-yl)oxy)phenyl)amino)pyrido[3,2-d]pyrimidin-6-yl)-3,6-diazabicyclo[3.1.1]heptan-6-yl)prop-2-en-1-one], the negative-log IC50 (pIC50) against ErbB2 V777L is 7.00 to 7.30; against EGFR WT, 6.30 to 7.00; against ErbB2 mutant L755S, over 7.00; at EGFR wild type it was at most 5.30.
On to `C=CC(=O)N1CCN(c2ncc3ncnc(Nc4ccc(Oc5ccn6ncnc6c5)c(C)c4F)c3c2F)CC1` [Compound 101, 1-(4-(4-((4-([1,2,4]triazolo[1,5-a]pyridin-7-yloxy)-2-fluoro-3-methylphenyl)amino)-5-fluoropyrido[3,4-d]pyrimidin-6-yl)piperazin-1-yl)prop-2-en-1-one], for which the pIC50 is 6.30 to 7.00 against ErbB2 V777L, 6.30 to 7.00 at EGFR WT, 6.30 to 7.00 against ErbB2 mutant L755S and at most 5.30 against EGFR wild type.
On to `C=CC(=O)N1CCN(c2ncc3ncnc(Nc4ccc(Oc5cc(F)c6c(c5)ncn6C)c(C)c4)c3n2)CC1` [Compound 64, 1-(4-(8-((4-((7-fluoro-1-methyl-1H-benzo[d]imidazol-5-yl)oxy)-3-methylphenyl)amino)pyrimido[5,4-d]pyrimidin-2-yl)piperazin-1-yl)prop-2-en-1-one], for which the pIC50 against ErbB2 V777L and against EGFR WT was over 7.30 in each case. Further, in series [1], the Kp uu at 1 h was 0.12.
For `C=CC(=O)N1CCN(c2ncc3ncnc(Nc4ccc(Oc5ccc6c(c5)nnn6C)c(C)c4)c3c2OC)CC1` [Compound 105], the negative logarithm of the IC50 (pIC50) was 6.30 to 7.00 against ErbB2 V777L, 6.00 to 6.30 at EGFR WT, 6.30 to 7.00 against ErbB2 mutant L755S and at most 5.30 against EGFR wild type.
For the compound `C=CC(=O)N1CCC2(C1)CN(c1ncc3ncnc(Nc4ccc(Oc5ccc6c(c5)nnn6C)c(C)c4)c3n1)C2` [Compound 15, 1-(2-(8-((3-methyl-4-((1-methyl-1H-benzo[d][1,2,3]triazol-5-yl)oxy)phenyl)amino)pyrimido[5,4-d]pyrimidin-2-yl)-2,6-diazaspiro[3.4]octan-6-yl)prop-2-en-1-one], the negative-log IC50 (pIC50) against ErbB2 V777L was 6.00 to 6.30; at EGFR WT, at most 6.00; against ErbB2 mutant L755S it was 6.00 to 6.30; against EGFR wild type, at most 5.30.
In the case of `C=CC(=O)N1CCN(c2ncc3ncnc(Nc4ccc(Oc5ccc6c(c5)nnn6C)c(C)c4)c3n2)CC1(C)C` [Compound 3, 1-(2,2-dimethyl-4-(8-((3-methyl-4-((1-methyl-1H-benzo[d][1,2,3]triazol-5-yl)oxy)phenyl)amino)pyrimido[5,4-d]pyrimidin-2-yl)piperazin-1-yl)prop-2-en-1-one], the pIC50 at ErbB2 V777L was 7.00 to 7.30; on EGFR WT, 6.30 to 7.00; on ErbB2 mutant L755S, 6.30 to 7.00; against EGFR wild type, at most 5.30.
Take `CC#CC(=O)N1CCN(c2ncc3ncnc(Nc4ccc(Oc5ccc6c(c5)nnn6C)c(C)c4)c3n2)CC1` [Compound 55, 1-(4-(8-((3-methyl-4-((1-methyl-1H-benzo[d][1,2,3]triazol-5-yl)oxy)phenyl)amino)pyrimido [5,4-d]pyrimidin-2-yl)piperazin-1-yl) but-2-yn-1-one]: the negative logarithm of the IC50 (pIC50) against ErbB2 V777L is 6.30 to 7.00; against EGFR WT, 6.00 to 6.30; against ErbB2 mutant L755S, 6.30 to 7.00; against EGFR wild type it was at most 5.30.
